Results on nine compounds are retold here after PubChem BioAssay (NCI).

Test systems include COLO 205 colon; HCC-2998 colon; HCT-15 colon; IGROV1 ovarian; K-562 leukemia; KM12 colon; MOLT-4 leukemia; SF-295 CNS; SF-539 CNS; UO-31 renal.
Holding throughout (assay): NCI anticancer screen, dose series, 48 h

Several values for one entry are separate records, joined by “and”; a condition that tells them apart may be missing. Identical values can stand only once.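 Each compound was tested at five concentrations against cells in 96-well plates for 48 hours. GI50 is the concentration that inhibits growth by half. TGI: total growth inhibition.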

In the case of `CN(C)c1ccc(C(=S)c2ccc(N(C)C)cc2)cc1`, the GI50 in the experiment on COLO 205 colon is 6.83 µM; in the experiment on HCC-2998 colon, 9.66 µM; with HCT-15 colon, 4.27 µM; in the experiment with IGROV1 ovarian it was 6.29 µM; in the experiment on K-562 leukemia, 3.61 µM; in the experiment on KM12 colon, 3.88 µM. The GI50 in the experiment on MOLT-4 leukemia is 6.35 µM; in the experiment with SF-295 CNS it was 4.73 µM; in the experiment on SF-539 CNS, 7.1 µM; in the experiment with UO-31 renal, 8.92 µM. The TGI was 59 µM with COLO 205 colon; > 100 µM in the experiment on HCC-2998 colon; > 100 µM in the experiment on HCT-15 colon; > 100 µM in the experiment with IGROV1 ovarian; > 100 µM with K-562 leukemia; > 100 µM in the experiment on KM12 colon. The TGI in the experiment with MOLT-4 leukemia is > 100 µM; with SF-295 CNS, > 100 µM; in the experiment on SF-539 CNS, 56.4 µM; in the experiment with UO-31 renal, > 100 µM.
Take `Cc1cccc2c(C3=C(c4cn(C)c5ccccc45)C(=O)NC3=O)cn(C)c12`: the GI50 is > 16.9 µM in the experiment on COLO 205 colon; > 25 µM in the experiment on HCC-2998 colon; 11.5 µM in the experiment on HCT-15 colon; 25 µM in the experiment on IGROV1 ovarian; > 19.7 µM in the experiment with K-562 leukemia; > 20.8 µM in the experiment on KM12 colon. The GI50 in the experiment on MOLT-4 leukemia was > 25 µM; in the experiment on SF-295 CNS, > 24 µM; in the experiment with SF-539 CNS, 19.1 µM; with UO-31 renal, > 21.5 µM. For the same compound, the TGI in the experiment with COLO 205 colon, in the experiment on HCC-2998 colon, in the experiment on HCT-15 colon, in the experiment on IGROV1 ovarian, in the experiment on K-562 leukemia and in the experiment with KM12 colon was > 25 µM in each case. Besides, the TGI in the experiment on MOLT-4 leukemia, in the experiment with SF-295 CNS, with SF-539 CNS and in the experiment on UO-31 renal was > 25 µM each time.
Take `Cc1ccccc1/C=C/c1csnn1`: the TGI was > 100 µM with COLO 205 colon; > 100 µM in the experiment with HCC-2998 colon; > 57.5 µM in the experiment with HCT-15 colon; > 100 µM with IGROV1 ovarian; > 100 µM with K-562 leukemia; > 100 µM with KM12 colon. In addition, the TGI in the experiment on MOLT-4 leukemia, with SF-295 CNS, in the experiment on SF-539 CNS and in the experiment with UO-31 renal was > 100 µM each time.
Consider `CCOC(=O)c1oc2c(OC)ccc3c2c1CCC3`, for which the TGI with COLO 205 colon, in the experiment on HCC-2998 colon, in the experiment on HCT-15 colon, in the experiment on IGROV1 ovarian, in the experiment with K-562 leukemia and in the experiment on KM12 colon was > 100 µM in each case. Further, the TGI with MOLT-4 leukemia, with SF-295 CNS, in the experiment on SF-539 CNS and in the experiment on UO-31 renal was > 100 µM each time.
`C[C@@H](C1CC[C@H]2[C@@H]3[C@@H]4O[C@@H]4[C@@]4(O)CC=CC(=O)[C@]4(C)[C@H]3C[C@H](O)[C@]12C)[C@H]1C[C@]2(C)O[C@]2(C)C(=O)O1` (stereo partly specified): the TGI in the experiment on COLO 205 colon, with HCC-2998 colon, in the experiment with HCT-15 colon, with IGROV1 ovarian, in the experiment with K-562 leukemia and in the experiment on KM12 colon was > 100 µM in each case. The TGI in the experiment with MOLT-4 leukemia, in the experiment on SF-295 CNS, in the experiment with SF-539 CNS and in the experiment with UO-31 renal was > 100 µM throughout.
In the case of `Clc1ccc(-c2cc(-c3ccccc3)nc(N3CCN(CCCNc4ccnc5cc(Cl)ccc45)CC3)n2)cc1`, the GI50 was 1.87 µM in the experiment on COLO 205 colon; 1.56 µM in the experiment with HCC-2998 colon; 0.779 µM with HCT-15 colon; 1.45 µM with IGROV1 ovarian; 0.461 µM in the experiment with K-562 leukemia; 1.68 µM in the experiment with KM12 colon. Besides, the GI50 is 1.22 µM in the experiment on MOLT-4 leukemia, 1.86 µM in the experiment with SF-295 CNS, 1.79 µM in the experiment on SF-539 CNS and 1.55 µM in the experiment with UO-31 renal. Moreover, the TGI was 3.7 µM in the experiment on COLO 205 colon; 3.02 µM in the experiment with HCC-2998 colon; 2.48 µM in the experiment with HCT-15 colon; 2.89 µM with IGROV1 ovarian; 2.31 µM with K-562 leukemia; 3.2 µM in the experiment with KM12 colon. Further, the TGI in the experiment on MOLT-4 leukemia was found to be 4.35 µM; in the experiment with SF-295 CNS, 3.72 µM; in the experiment on SF-539 CNS, 3.25 µM; with UO-31 renal, 2.9 µM.
Regarding `O=C1c2c(O)cccc2C(C(=O)CCCCCC(=O)C2c3cccc(O)c3C(=O)c3c(O)cccc32)c2cccc(O)c21`, the GI50 in the experiment with COLO 205 colon was 7.8 µM; in the experiment on HCC-2998 colon, 2.83 µM; with HCT-15 colon, 7.25 µM; with IGROV1 ovarian, 12.5 µM; with K-562 leukemia, 2.86 µM; with KM12 colon, 1.65 µM. The GI50 in the experiment on MOLT-4 leukemia was 10.8 µM; in the experiment on SF-295 CNS it was 1.48 µM; in the experiment on SF-539 CNS it was 6.64 µM; in the experiment with UO-31 renal it was 7.85 µM. Further, the TGI in the experiment with COLO 205 colon was 25 µM and 15.5 µM; in the experiment with HCC-2998 colon, 25 µM and 12.7 µM; in the experiment on HCT-15 colon it was 5.44 µM and 14.4 µM; in the experiment on IGROV1 ovarian it was 6.13 µM and 28.6 µM; with K-562 leukemia it was 25 µM and 12.5 µM; in the experiment on KM12 colon, 3.71 µM and 5.6 µM. In addition, the TGI in the experiment with MOLT-4 leukemia was 25 µM and 27.6 µM; in the experiment with SF-295 CNS, 25 µM and 3.74 µM; with UO-31 renal, 3.88 µM and 14.5 µM.
As for `NC(Cc1ccccc1)C(=O)OCN1C(=O)C2C3C=CC(C2C1=O)C1C2C(=O)N(COC(=O)C(N)Cc4ccccc4)C(=O)C2C31` (stereo unspecified), the TGI was 32.8 µM and 32.2 µM in the experiment on COLO 205 colon; > 100 µM in the experiment on HCC-2998 colon; 35.2 µM and 35.3 µM in the experiment on HCT-15 colon; > 100 µM and 70.7 µM in the experiment on IGROV1 ovarian; 63.2 µM and > 100 µM in the experiment on K-562 leukemia; 40.7 µM and 40.1 µM in the experiment with KM12 colon. The TGI was 52 µM and 42.9 µM in the experiment on MOLT-4 leukemia; > 100 µM in the experiment on SF-295 CNS; 44.8 µM and 44.6 µM with SF-539 CNS. For the same compound, the GI50 is 55.4 µM in the experiment with HCC-2998 colon; 24.3 µM and 12 µM in the experiment on MOLT-4 leukemia; 40.6 µM with UO-31 renal.
Regarding `C=CC(=O)N[C@@H]1CN(c2nc(Nc3cn(C)nc3OC)c3ncn(C)c3n2)C[C@H]1F`, the GI50 is 17.6 µM with COLO 205 colon; 47.8 µM in the experiment on HCC-2998 colon; 39 µM in the experiment on HCT-15 colon; 2.61 µM in the experiment with IGROV1 ovarian; 42.9 µM in the experiment with K-562 leukemia; 33.6 µM in the experiment on KM12 colon. Besides, the GI50 in the experiment on MOLT-4 leukemia was 39 µM; with SF-295 CNS it was 38.9 µM; in the experiment with SF-539 CNS, 28.1 µM; in the experiment with UO-31 renal, 10.9 µM. Also, the TGI with COLO 205 colon is 48.6 µM; in the experiment with HCC-2998 colon, > 100 µM; with HCT-15 colon, > 100 µM; in the experiment with IGROV1 ovarian, > 72.6 µM; with K-562 leukemia, > 100 µM; in the experiment on KM12 colon, > 100 µM. For the same compound, the TGI in the experiment with MOLT-4 leukemia, in the experiment with SF-295 CNS, in the experiment on SF-539 CNS and in the experiment with UO-31 renal was > 100 µM in each case.
